Numbered stars: 1 amine (or outer) side, 2 acyl side, 3 side chain; on linkers, the order of the positions; unused ones are H or OH. Square brackets hold non-standard residues; d marks the D form. Peptide text beside a SMILES is read from it. * marks the point of attachment. 5FAM = O=C1OC2(c3ccc(O)cc3Oc3cc(O)ccc32)c2ccc(C(=O)*)cc21; NHCH2C6H4(4-CH2CONH2) = NC(=O)Cc1ccc(CN*)cc1; X1 = O=C(Cc1ccc(CN[*:1])cc1)[*:2]

The target in one experiment is T1, ASGPR (Homo sapiens, UniProt P07306).
T1 construct: purchased R&D Systems, Inc. 4394-AS
T1 sequence (P07306 1-291): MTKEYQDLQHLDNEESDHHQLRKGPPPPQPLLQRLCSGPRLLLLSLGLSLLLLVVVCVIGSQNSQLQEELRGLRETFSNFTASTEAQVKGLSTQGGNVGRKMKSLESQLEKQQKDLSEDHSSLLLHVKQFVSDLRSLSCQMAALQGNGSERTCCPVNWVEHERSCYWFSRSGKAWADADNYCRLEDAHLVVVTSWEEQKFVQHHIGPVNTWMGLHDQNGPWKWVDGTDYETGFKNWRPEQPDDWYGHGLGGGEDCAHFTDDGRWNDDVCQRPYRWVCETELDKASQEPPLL
Put plainly: MST binding affinity of resynthesized NNP hits to ASGPR. To be noted: read-out: KD of ASGPR hits by MST. How it is done: (§1) Hit binding affinity to various targets were determined using Microscale Thermophoresis (MST). MST experiments were performed on a Monolith NT.115pico (NanoTemper Technologies GmbH, Munich, Germany). Measurements were performed at room temperature, in triplicate with incubation periods of 15, 30 and 45 minutes. […] Targets were labeled using Nanotemper Monolith 2nd Generation Protein Labeling Kits. RED-MALEIMIDE (Maleimide-647-dye) labeling kit was used for K-Ras and RED-NHS (NHS-647-dye) labeling kit was used for IL-6, IL-6R, TNFα and ASGPR. The buffer for the ASGPR contained 20 mM HEPES pH 7.4, 150 mM NaCl, 10 mM MgCl2, 2 mM CaCl2, 0.05% Pluronic F-127, and 1 mM DTT; for IL-6 contained 20 mM HEPES pH 7.4, 150 mM KCl, 10 mM MgCl2, and 0.1% Pluronic F-127; for the soluble IL-6 receptor 20 mM HEPES pH 7.4, 150 mM NaCl, 10 mM MgCl2, and 0.05% Tween-20; for K-Ras 20 mM HEPES pH 7.4, 150 mM NaCl, 10 mM MgCl2, 0.05% Tween-20 and 1 mM DTT; for TNFα 10 mM HEPES pH 7.4, 150 mM NaCl, 10 mM MgCl2, 0.05% Polysorbate-20. Triplicate data was analyzed using MO.AffinityAnalysis software (NanoTemper Technologies GmbH).

Experiment [1] concerns ASGPR-mediated uptake in HepG2 cells. Put plainly: Competitive uptake assay with asialofetuin in HepG2. The experiment is classed as cell-based, human. The settings on record: test compound 0.3 μM; for Cellular uptake with 60 μM asialofetuin: 60 μM asialofetuin (200-fold excess); for Cellular uptake after pre-incubation with asialofetuin: asialofetuin 20 μM and 60 μM. How it is done:
For the competitive uptake assay with the natural ligand of ASGPR (asialofetuin), cells were pre-incubated with 20 μM and 60 μM asialofetuin on ice or at 37 degrees C. for 1.5 hours, followed by the treatment with compounds for additional 2 hours before flow cytometric analysis as described above. The reduction of the uptake under asialofetuin competition was expressed by the percentage against the same treatment condition without asialofetuin.

The subject of experiment [2] is HepG2 cells (high ASGPR expressing). Kind of experiment: ASGPR uptake assay, flow cytometry, HepG2. The format is cell-based, human. As to the method: The HEK293T (human embryonic kidney cells) and human hepatoma HepG2 cells were grown according to the protocols provided by the American Type Culture Collection (ATCC). When cells reached cell were seeded at ˜1.5×10^5 cells/well in 24-well culture plate for the uptake assay. After at least 16 hours of culture to allow cell attach and equilibrate, the compound treatment was set up for the uptake assay.
The fluorescein-labeled NNPs or fluorescein-labeled N-acetylgalactosamine (GalNAc) recognizing ASGRPR were added to wells at indicated concentrations and incubated for 2 hours. Two plates were prepared for each treatment condition, one serving as 4 degrees C. no internalization control that was kept on ice during incubation, while the second plate was incubated at 37 degrees C. to allow for energy dependent internalization. Following the incubation period, all plates were placed on ice and washed three times with ice-cold PBS/3% BSA/2 mM EDTA and then lifted with trypsin. Cells were transferred to a 96-well round bottom plates in FACS buffer. Cells were then analyzed by flow cytometry using LSR-HJ with HTS sampler (BD Biosciences, San Jose, CA, USA). Data (mean fluorescence intensities) and further analyzed using Flowjo software (BD Biosciences, San Jose, CA, USA). The internalized fraction was expressed as the difference between the corresponding 4 degrees C. and 37 degrees C. MFIs as previously described.

Another experiment has as its target T2, IL-6 (Homo sapiens, UniProt P05231).
T2 construct: purchased Creative Biomart IL6-12H
Put plainly: MST binding affinity of resynthesized NNP hits to IL-6. The settings on record: read-out: KD (nM) [95% conf. int], NNP2 library hit, target IL-6, one-site binding model. As to the method: as §1

Another experiment deals with HepG2 cells. Kind of experiment: Confocal imaging of HepG2 cell uptake. The experiment is classed as cell-based, human. As to the method:
More particularly, FIG. 11B illustrates cell uptake of GalNAc (positive control), two NNP hits (ASGPR-9-4 and ASGPR-9-6) and a non-hit NNP (KRAS-1-14, negative control) in HepG2 (high ASGPR expressing) verses HEK293 (low ASGPR expressing) cells lines. FIG. 11C illustrates competition uptake assay of GalNAc and two NNP hits (ASGPR-9-4 and ASGPR-9-6) in HepG2 cells after preincubation with different concentrations of asialofetuin (a naturally occurring serum protein ASGPR ligand). Decrease in cell uptake with increasing concentrations of asialofetuin indicates blocking of ASGPR-mediated uptake. FIG. 11D illustrates example confocal images 1113, 1115, 1117, 1119 of HepG2 cell uptake (scale: x20 for the images 1113, 1115, 1117 and x40 for the image 1119). FL=fluorescein label; Cell nucleus staining with DAPI (blue). No uptake with the blank sample (DMSO) is seen at 4 degrees C.

In the case of `CC(C)C[C@H](NC(=O)CNC(=O)[C@@H](Cc1c[nH]cn1)NC(=O)[C@@H](CCCNC(=N)N)NC(=O)[C@H]1CCCN1C(=O)Cc1ccc(CNC(=O)[C@H](Cc2ccccc2)NC(=O)[C@@H](CO)NC(=O)[C@@H](CCCNC(=N)N)NC(=O)[C@H]2CCCN2C(=O)CNC(=O)Cc2ccc(CNC(=O)[C@H](CC(C)C)NC(=O)[C@@H](CCCNC(=N)N)NC(=O)[C@@H](CCCCN)NC(=O)[C@@H](CCC(=O)O)NC(=O)[C@@H](Cc3ccccc3)NC(=O)Cc3ccc(CNC(=O)[C@H](Cc4ccccc4)NC(=O)[C@@H](CO)NC(=O)[C@@H](CCC(=O)O)NC(=O)[C@H]4CCCN4C(=O)[C@@H](CC(C)C)NC(=O)c4ccc5c(c4)C(=O)OC54c5ccc(O)cc5Oc5cc(O)ccc54)cc3)cc2)cc1)C(=O)NCc1ccc(CC(=O)N[C@H](CCCNC(=N)N)C(=O)N[C@H](Cc2ccccc2)C(=O)N2CCC[C@@H]2C(=O)N[C@@H](C(=O)NCC(=O)NCc2ccc(CC(=O)N[C@H](CC(C)C)C(=O)N3CCC[C@@H]3C(=O)N[C@H](CCCNC(=N)N)C(=O)N[C@@H](C(=O)NCC(=O)NCc3ccc(CC(N)=O)cc3)[C@H](C)O)cc2)C(C)C)cc1` [ASGPR-9-4] (5FAM-[dL][dP][dE][dS]F[X1][dF][dE][dK][dR]L[X1]G[dP][dR][dS]F[X1][dP][dR][dH]GL[X1][dR][dF][dP][dV]G[X1][dL][dP][dR][dT]G-{NHCH2C6H4(4-CH2CONH2)}), at ASGPR, the Kd was 230 nM. In experiment [1], the “Cellular uptake with 60 μM asialofetuin” value is “mostly abolished” and the “Cellular uptake after pre-incubation with asialofetuin” value was “decreased with increasing concentrations of asialofetuin”. In experiment [2] (HepG2, flow cytometry), the “Internalization compared with positive control GalNAc” value is recorded as “significantly higher than uptake of the positive control GalNAc”. In addition, the “Internalization (cell uptake) in HepG2” value in experiment [2] (fluorescein-labeled compounds, flow cytometry, 2 hours) is listed as “significantly higher in HepG2 cells compared to in HEK293 cells”.
Take `CC(C)C[C@H](NC(=O)[C@@H](CCCNC(=N)N)NC(=O)CNC(=O)Cc1ccc(CNC(=O)[C@H](CC(C)C)NC(=O)[C@@H](CC(C)C)NC(=O)[C@@H](Cc2ccc(O)cc2)NC(=O)c2ccc3c(c2)C(=O)OC32c3ccc(O)cc3Oc3cc(O)ccc32)cc1)C(=O)NCc1ccc(CC(=O)N[C@H](CCCNC(=N)N)C(=O)N[C@H](CO)C(=O)N[C@@H](Cc2ccccc2)C(=O)NCc2ccc(CC(=O)N[C@H](Cc3ccccc3)C(=O)N[C@H](CCCNC(=N)N)C(=O)N[C@@H](C)C(=O)NCc3ccc(CC(=O)N[C@H](CCC(=O)O)C(=O)N[C@H](CCCCN)C(=O)N[C@@H](Cc4ccccc4)C(=O)NCc4ccc(CC(=O)N[C@H](CCC(=O)O)C(=O)N[C@H](CCCNC(=N)N)C(=O)N[C@@H](CC(C)C)C(=O)NCc5ccc(CC(=O)N[C@H](C)C(=O)N[C@H](CCCNC(=N)N)C(=O)N[C@@H](CC(C)C)C(=O)NCc6ccc(CC(=O)N7CCC[C@@H]7C(=O)N[C@H](CCCNC(=N)N)C(=O)N[C@@H](C)C(=O)NCc7ccc(CC(=O)N[C@H](Cc8ccc(O)cc8)C(=O)N[C@H](CCCNC(=N)N)C(=O)N[C@@H](Cc8ccccc8)C(=O)NCc8ccc(CC(N)=O)cc8)cc7)cc6)cc5)cc4)cc3)cc2)cc1` [IL6-65-7, Fluorescein-(D)Tyr-(D)Leu-(L)Leu-PAM-Gly-(D)Arg-(L)Leu-PAM-(D)Arg-(D)Ser-(L)Phe-PAM-(D)Phe-(D)Arg-(L)Ala-PAM-(D)Glu-(D)Lys-(L)Phe-PAM-(D)Glu-(D)Arg-(L)Leu-PAM-(D)Ala-(D)Arg-(L)Leu- PAM-(D)Pro-(D)Arg-(L)Ala-PAM-(D)Tyr-(D)Arg-(L)Phe-PAM] (5FAM-[dY][dL]L[X1]G[dR]L[X1][dR][dS]F[X1][dF][dR]A[X1][dE][dK]F[X1][dE][dR]L[X1][dA][dR]L[X1][dP][dR]A[X1][dY][dR]F-{NHCH2C6H4(4-CH2CONH2)}): the Kd at IL-6 amounted to 210 nM.
Take `CC(C)C[C@H](NC(=O)[C@@H](CCCNC(=N)N)NC(=O)CNC(=O)Cc1ccc(CNC(=O)[C@H](CC(C)C)NC(=O)[C@@H](CC(C)C)NC(=O)[C@@H](Cc2ccc(O)cc2)NC(=O)c2ccc3c(c2)C(=O)OC32c3ccc(O)cc3Oc3cc(O)ccc32)cc1)C(=O)NCc1ccc(CC(=O)N[C@H](CCCNC(=N)N)C(=O)N[C@H](CO)C(=O)N[C@@H](Cc2ccccc2)C(=O)NCc2ccc(CC(=O)N3CCC[C@@H]3C(=O)N[C@H](CCCNC(=N)N)C(=O)N[C@H](C(=O)NCc3ccc(CC(=O)N[C@H](Cc4c[nH]c5ccccc45)C(=O)N[C@H](CCCNC(=N)N)C(=O)N[C@H](C(=O)NCc4ccc(CC(=O)N[C@H](CC(N)=O)C(=O)N[C@H](CCCNC(=N)N)C(=O)N[C@@H](Cc5ccccc5)C(=O)NCc5ccc(CC(=O)N[C@H](CCC(=O)O)C(=O)N[C@H](Cc6ccc(O)cc6)C(=O)N[C@H](C(=O)NCc6ccc(CC(=O)N7CCC[C@@H]7C(=O)N[C@H](CCCNC(=N)N)C(=O)N[C@@H](C)C(=O)NCc7ccc(CC(=O)N[C@H](Cc8ccc(O)cc8)C(=O)N[C@H](CCCNC(=N)N)C(=O)N[C@@H](Cc8ccccc8)C(=O)NCc8ccc(CC(N)=O)cc8)cc7)cc6)C(C)C)cc5)cc4)C(C)C)cc3)C(C)C)cc2)cc1` [IL6-65-11, Fluorescein-(D)Tyr-(D)Leu-(L)Leu-PAM-Gly-(D)Arg-(L)Leu-PAM-(D)Arg-(D)Ser-(L)Phe-PAM-(D)Pro-(D)Arg-(L)Val-PAM-(D)Trp-(D)Arg-(L)Val-PAM-(D)Asn-(D)Arg-(L)Phe-PAM-(D)Glu-(D)Tyr-(L)Val- PAM-(D)Pro-(D)Arg-(L)Ala-PAM-(D)Tyr-(D)Arg-(L)Phe-PAM] (5FAM-[dY][dL]L[X1]G[dR]L[X1][dR][dS]F[X1][dP][dR]V[X1][dW][dR]V[X1][dN][dR]F[X1][dE][dY]V[X1][dP][dR]A[X1][dY][dR]F-{NHCH2C6H4(4-CH2CONH2)}): the Kd at IL-6 is 25 nM.
Take “THA-(GalNAc)3-(OH)9-1,3-propanediamine-fluorescein [reference compound]”: in the experiment on HepG2 cells (4 degrees C.), the “HepG2 cell uptake, confocal images, 4 degrees C.” value is reported as “no uptake”. Also, the “HepG2 cell uptake, confocal images, 37 degrees C.” value in the experiment with HepG2 cells (37 degrees C.) is “is seen at 37 °C”. Moreover, in experiment [1], the “Cellular uptake with 60 μM asialofetuin” value is on record as “mostly abolished” and the “Cellular uptake after pre-incubation with asialofetuin” value is “decreased with increasing concentrations of asialofetuin”.
